Patent US12655116B2, “Substituted isophthalic acid diamides” (Bayer Aktiengesellschaft, priority 2020, dated 2026)

How the values were obtained:
ABUTH [1] = assay: Pre-emergence herbicidal action against ABUTH; assay type: in vivo, Abutilon theophrasti; conditions: Abutilon theophrasti, 504 h
In short: (§1)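 Visual rating at 3 weeks vs untreated pots; 0–100% scale, 100% = plants died. Treatment: aqueous WP/EC spray onto covering soil, 600–800 l/ha, 0.2% wetter, seeds in sandy loam.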

ALOMY [2] = assay: Pre-emergence herbicidal action against ALOMY; assay type: in vivo, Alopecurus myosuroides; conditions: Alopecurus myosuroides, pre-emergence, 504 h; 320 g/ha; scored visually after 3 weeks, 100% = plants have died, 0% = like control plants
In short: as §1

AMARE [3] = assay: Pre-emergence herbicidal action against AMARE; assay type: in vivo, Amaranthus retroflexus; conditions: Amaranthus retroflexus, 504 h, 100% = plants have died, 0% = like control plants
In short: as §1

AVEFA [4] = assay: Pre-emergence herbicidal action against AVEFA; assay type: in vivo, Avena fatua; conditions: Avena fatua, 504 h, pre-emergence
In short: as §1

ECHCG [5] = assay: Pre-emergence herbicidal action against ECHCG; assay type: in vivo, Echinochloa crus-galli; conditions: Echinochloa crus-galli, 504 h
In short: as §1

HORMU [6] = assay: Pre-emergence herbicidal action against HORMU; assay type: in vivo, Hordeum murinum; conditions: Hordeum murinum, 504 h; 320 g/ha, pre-emergence
In short: as §1

MATIN [7] = assay: Pre-emergence herbicidal action against MATIN; assay type: in vivo, Matricaria inodora; conditions: Tripleurospermum inodorum, 504 h
In short: as §1

SETVI = assay: Pre-emergence herbicidal action against SETVI; assay type: in vivo, Setaria viridis; conditions: Setaria viridis, 504 h
In short: as §1

STEME [8] = assay: Pre-emergence herbicidal action against STEME; assay type: in vivo, Stellaria media; conditions: Stellaria media, 504 h
In short: as §1

VERPE [9] = assay: Pre-emergence herbicidal action against VERPE; assay type: in vivo, Veronica persica; conditions: Veronica persica, 504 h, dosage 320 g/ha
In short: as §1

VIOTR [10] = assay: Pre-emergence herbicidal action against VIOTR; assay type: in vivo, Viola tricolor; conditions: Viola tricolor, 504 h
In short: as §1

DIGSA [11] = assay: Pre-emergence herbicidal action against DIGSA; assay type: in vivo, Digitaria sanguinalis; conditions: Digitaria sanguinalis, 504 h
In short: as §1

ABUTH [12] = assay: Post-emergence herbicidal action against ABUTH; assay type: in vivo, Abutilon theophrasti; conditions: Abutilon theophrasti, 504 h, visual assessment about 3 weeks after treatment vs untreated controls
In short: (§2)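 Weeds in sandy loam soil received a post-emergence spray at the one-leaf stage. Compounds were applied as WP or EC in water, 600 to 800 l/ha, with 0.2% wetting agent. Activity in % was judged visually after roughly 3 weeks against untreated plants.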

ALOMY [13] = assay: Post-emergence herbicidal action against ALOMY; assay type: in vivo, Alopecurus myosuroides; conditions: Alopecurus myosuroides, 504 h, visual assessment about 3 weeks after treatment vs untreated controls
In short: as §2

AMARE [14] = assay: Post-emergence herbicidal action against AMARE; assay type: in vivo, Amaranthus retroflexus; conditions: Amaranthus retroflexus, 504 h, 80 g/ha, visual assessment about 3 weeks after treatment, 100% = plants have died, 0% = like control plants
In short: as §2

AVEFA [15] = assay: Post-emergence herbicidal action against AVEFA; assay type: in vivo, Avena fatua; conditions: Avena fatua, 504 h, 80 g/ha, visual assessment about 3 weeks after treatment, 100% = plants have died, 0% = like control plants
In short: as §2

ECHCG [16] = assay: Post-emergence herbicidal action against ECHCG; assay type: in vivo, Echinochloa crus-galli; conditions: Echinochloa crus-galli, 504 h
In short: as §2

HORMU [17] = assay: Post-emergence herbicidal action against HORMU; assay type: in vivo, Hordeum murinum; conditions: Hordeum murinum, 504 h
Description: Seeds of monocotyledonous and dicotyledonous weed and crop plants are laid out in sandy loam soil in wood-fiber pots, covered with soil and cultivated in a greenhouse under good growth conditions. 2 to 3 weeks after sowing, the test plants are treated at the one-leaf stage. The compounds of the invention, formulated in the form of wettable powders (WP) or as emulsion concentrates (EC), are then sprayed onto the green parts of the plants in the form of an aqueous suspension or emulsion at a water application rate equivalent to 600 to 800 l/ha, with addition of 0.2% wetting agent. After the test plants have been left to stand in the greenhouse under optimal growth conditions for about 3 weeks, the action of the preparations is assessed visually in comparison to untreated controls (herbicidal action in percent (%): 100% activity=the plants have died, 0% activity=like control plants). […] The tables below illustrate, in an illustrative manner, the post-emergence herbicidal action of the compounds of the invention, the herbicidal activity being stated in percent.

MATIN [18] = assay: Post-emergence herbicidal action against MATIN; assay type: in vivo, Matricaria inodora; conditions: Tripleurospermum inodorum, 504 h
In short: as §2

PHBPU = assay: Post-emergence herbicidal action against PHBPU; assay type: in vivo, Pharbitis purpurea; conditions: Ipomoea purpurea, 504 h, dosage 80 g/ha
In short: as §2

STEME [19] = assay: Post-emergence herbicidal action against STEME; assay type: in vivo, Stellaria media; conditions: Stellaria media, 504 h
In short: as §2

VERPE [20] = assay: Post-emergence herbicidal action against VERPE; assay type: in vivo, Veronica persica; conditions: Veronica persica, 504 h, 80 g/ha
In short: as §2

VIOTR [21] = assay: Post-emergence herbicidal action against VIOTR; assay type: in vivo, Viola tricolor; conditions: Viola tricolor, 504 h, 80 g/ha
In short: as §2

DIGSA [22] = assay: Post-emergence herbicidal action against DIGSA; assay type: in vivo, Digitaria sanguinalis; conditions: Digitaria sanguinalis, 504 h
In short: as §2

In the case of `CCNC(=O)c1c(C(F)(F)F)ccc(C(=O)Nc2nnc(C)o2)c1Cl` [Example 6-117], the pest or weed control at 80 g/ha (ABUTH [1]; 80 g/ha, scored visually after 3 weeks vs untreated controls (100% = plants have died, 0% = like control plants)) is reported as 100%, the pest or weed control at 320 g/ha (ABUTH [1]; Dosage: 320 g/ha, scored visually after 3 weeks, 100% = plants have died, 0% = like control plants) is reported as 100% and the pest or weed control at 320 g/ha (ALOMY [2]) is reported as 90%. The pest or weed control at 80 g/ha (AMARE [3]; 80 g/ha, scored visually after 3 weeks vs untreated controls) was 100%, the pest or weed control at 320 g/ha (AMARE [3]; 320 g/ha, scored visually after 3 weeks) was 100% and the pest or weed control at 80 g/ha (AVEFA [4]; 80 g/ha) was 100%. It also gave a pest or weed control at 320 g/ha (AVEFA [4]; 320 g/ha, scored visually after 3 weeks, 100% = plants have died, 0% = like control plants) of 100%, a pest or weed control at 80 g/ha (ECHCG [5]; 80 g/ha) of 90% and a pest or weed control at 320 g/ha (ECHCG [5]; 320 g/ha) of 100%. It also gave a pest or weed control at 320 g/ha (HORMU [6]) of 100%, a pest or weed control at 80 g/ha (MATIN [7]; dosage 80 g/ha) of 100% and a pest or weed control at 320 g/ha (MATIN [7]; dosage 320 g/ha) of 100%. For the same compound, the pest or weed control at 80 g/ha (SETVI; dosage 80 g/ha) was 100%, the pest or weed control at 320 g/ha (SETVI; dosage 320 g/ha) was 100% and the pest or weed control at 80 g/ha (STEME [8]; dosage 80 g/ha) was 100%. For the same compound, the pest or weed control at 320 g/ha (STEME [8]; dosage 320 g/ha) was 100%, the pest or weed control at 320 g/ha (VERPE [9]) was 90% and the pest or weed control at 80 g/ha (VIOTR [10]; dosage 80 g/ha) was 80%. For the same compound, the pest or weed control at 320 g/ha (VIOTR [10]; dosage 320 g/ha) was 100%, the pest or weed control at 80 g/ha (DIGSA [11]; dosage 80 g/ha) was 100% and the pest or weed control at 320 g/ha (DIGSA [11]; dosage 320 g/ha) was 100%. It also gave a pest or weed control at 20 g/ha (ABUTH [12]; dosage 20 g/ha) of 80%, a pest or weed control at 80 g/ha (ABUTH [12]; dosage 80 g/ha) of 80% and a pest or weed control at 20 g/ha (ALOMY [13]; dosage 20 g/ha) of 80%. It also gave a pest or weed control at 80 g/ha (ALOMY [13]; dosage 80 g/ha) of 90%, a pest or weed control at 80 g/ha (AMARE [14]) of 80% and a pest or weed control at 80 g/ha (AVEFA [15]) of 90%. The pest or weed control at 20 g/ha (ECHCG [16]; dosage 20 g/ha) was 80%, the pest or weed control at 80 g/ha (ECHCG [16]; dosage 80 g/ha) was 80% and the pest or weed control at 20 g/ha (HORMU [17]; dosage 20 g/ha) was 80%. The pest or weed control at 80 g/ha (HORMU [17]; dosage 80 g/ha) was 90%, the pest or weed control at 20 g/ha (MATIN [18]; dosage 20 g/ha) was 90% and the pest or weed control at 80 g/ha (MATIN [18]; dosage 80 g/ha) was 90%. For the same compound, the pest or weed control at 80 g/ha (PHBPU) was 80%, the pest or weed control at 20 g/ha (STEME [19]; 20 g/ha) was 90% and the pest or weed control at 80 g/ha (STEME [19]; 80 g/ha) was 90%. For the same compound, the pest or weed control at 80 g/ha (VERPE [20]) was 80%, the pest or weed control at 80 g/ha (VIOTR [21]) was 80% and the pest or weed control at 20 g/ha (DIGSA [22]; 20 g/ha) was 80%. It also gave a pest or weed control at 80 g/ha (DIGSA [22]; 80 g/ha) of 90%.
